According to patent US9938301B2, “Dihydropyrimido fused ring derivative as HBV inhibitor” (QILU PHARMACEUTICAL CO., LTD., priority 2014, dated 2018):

Tests used:
[1] = tested on: HBV DNA in HepG2.2.15 cells; assay: HBV in vitro dot-blot hybridization test; format: cell-based, Hepatitis B virus; settings: Hepatitis B virus
Method in brief: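 HepG2.2.15 cells (4×10^4/well) treated in duplicate with 6 five-fold compound dilutions (1% DMSO final), medium with compound renewed on day 5, cells harvested day 8-9. Intracellular HBV DNA quantified by dot-blot with DIG-labelled probe; % inhibition normalised to 1 μM GLS4 (100%) and DMSO (0%), EC50 fitted.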

[2] = tested on: HBV DNA in HepG2.2.15 cells; assay: HBV in vitro assay quantitive qPCR test; format: cell-based; settings: Hepatitis B virus
Experimental: • 1 Purpose of the test: • The content of HBV DNA in HepG2.2.15 cells was detected by real time quantitive qPCR test to evaluate an inhibitory action of the compound on HBV with an EC50 value of the compound as an indicator. • 2 Experimental materials: • 2.1 Cell lines: HepG2.2.15 Cells • HepG2.2.15 cell culture media (DMEM/F12, Invitrogen-11330057; 10% serum, Invitrogen-10099141; 100 units/ml Penicillin and 10 μg/ml Streptomycin, Invitrogen-15140122; 1% non-essential amino acid, Invitrogen-1140076; 2 mM L-GLUTAMINE, Invitrogen-25030081; 300 μg/ml Geneticin, Invitrogen-10131027 • 2.2 Reagents: • trypsin (Invitrogen-25300062) • DPBS (Hyclone-SH30028.01B) • DMSO (Sigma-D2650-100ML) • High-Throughput DNA Purification Kit (QIAamp 96 DNA Blood Kit, Qiagen-51162) • Quantitative Fast Start Universal Probe Reagent (FastStart Universal Probe Master, Roche-04914058001) • 2.3 Materials and Instruments: • 96-well cell culture plate (Corning-3599) • CO2 Incubator (HERA-CELL-240) • Optical Sealing Membrane (ABI-4311971) • Quantitative PCR 96-well Plate (Applied Biosystems-4306737) • Fluorescent Quantitative PCR Instrument (Applied Biosystems-7500 real time PCR system) • 3. Testing steps and Methods: • 3.1 HepG2.2.15 cells (4×10^4 cells/well) were planted into a 96-well plate, and at 37° C., 5% CO2 cultured overnight. • 3.2 On Day 2, the compounds were diluted in totally 8 concentrations with a dilution gradient of three times. The compounds at different concentrations were added into the culture wells in duplicate. The final concentration of DMSO in the culture media was 1%. 1 μM GLS4 was used as 100% inhibition control; 1% DMSO as 0% inhibition control. • 3.3 On Day 5, replacing with the fresh culture media containing the compound was performed. • 3.4 On Day 8, the culture media in the culture wells was collected, and DNA was extracted with a High-Throughput DNA Purification Kit (Qiagen-51162), See Specification of the product for specific steps. • 3.5 Preparation of PCR Reaction Mixture was shown in Table 1:
• 3.6 To each well of a 96-well PCR plate was added 15 μl reaction mixture, and then to each well was added 10 μl sample DNA or HBV DNA standard. • 3.7 The reaction conditions of PCR were: heating at 95° C. for 10 minutes; then at 95° C. denaturing for 15 seconds, and at 60° C. extending for 1 minute, totally 40 cycles. • 3.8 Data Analysis: • 3.8.1 The inhibition percentage was calculated: % Inh.=[1−(DNA copy number in sample−DNA copy number in 1 μM GLS4)/(DNA copy number in DMSO control−DNA copy number in 1 μM GLS4)]×100. • 3.8.2 Calculating EC50: the concentration of the compound for 50% inhibition of HBV (EC50) was calculated by using GraphPad Prism Software. • 4 Testing Results • The testing results were shown in Table 3: […]

[3] = HepG2.2.15, dot-blot hybridization assay, read-out: Concentration for 50% inhibition of HBV (EC50)value
[4] = HepG2.2.15, summary list of target compounds, Examples 1-165 (same as Table 2), read-out: BIOACTIVITY (inhibitory actions on HBV DNA, EC50)
[5] = qPCR assay, HepG2.2.15 cells, read-out: Concentration for 50% inhibition of HBV (EC50)value
[6] = summary list of target compounds, Examples 166-220 (values of Table 3), HepG2.2.15 cells, read-out: BIOACTIVITY (inhibitory actions on HBV DNA, EC50)

| SMILES | EC50 [1, 3] [nM] | EC50 [1, 4] [nM] | also measured |
| --- | --- | --- | --- |
| CCOC(=O)C1=C2CNS(=O)(=O)CN2C(c2nccs2)=N[C@H]1c1ccc(F)cc1Br [Example 135] | 500 to 1000 | – | EC50 ([1]; HepG2.2.15, read-out: BIOACTIVITY (inhibitory actions on HBV DNA, EC50), summary list of target compounds, Examples 1-165 (same as Table 2)): 500 to 1000 nM |
| CCOC(=O)C1=C2CN(C)S(=O)(=O)CN2C(c2nccs2)=N[C@H]1c1ccc(F)cc1Br [Example 136] | 500 to 1000 | 500 to 1000 | – |
| CCOC(=O)C1=C2C[C@H](C(=O)NS(=O)(=O)C(F)(F)F)CN2C(c2nccs2)=N[C@H]1c1ccc(F)cc1F [Example 137] | 1000 to 5000 | 1000 to 5000 | – |
| CCOC(=O)C1=C2C[C@H](NS(C)(=O)=O)CN2C(c2nccs2)=N[C@H]1c1ccc(F)cc1F [Example 138] | < 100 | < 100 | – |
| CCOC(=O)C1=C2C[C@H](NC(=O)C3COC3)CN2C(c2nccs2)=N[C@H]1c1ccc(F)cc1Cl [Example 139] | 1000 to 5000 | 1000 to 5000 | – |
| CCOC(=O)C1=C2C[C@H](N[S+]([O-])C(C)(C)C)CN2C(c2nccs2)=N[C@H]1c1ccc(F)cc1Cl (some centres unmarked) [Example 140] | 500 to 1000 | 500 to 1000 | – |
| CCOC(=O)C1=C2C[C@H](NS(C)(=O)=O)CN2C(c2nccs2)=N[C@@H]1c1ccc(F)cc1Cl [Example 141] | 500 to 1000 | 500 to 1000 | – |
| CCOC(=O)C1=C2C[C@H](NC(=O)C(F)(F)F)CN2C(c2nccs2)=N[C@H]1c1ccc(F)cc1Cl [Example 142] | 100 to 500 | 100 to 500 | – |
| CCOC(=O)C1=C2C[C@H](NS(=O)(=O)CC(=O)O)CN2C(c2nccs2)=N[C@H]1c1ccc(F)cc1Cl [Example 143] | 100 to 500 | 100 to 500 | – |
| CCOC(=O)C1=C2C[C@H](NS(=O)(=O)C3COC3)CN2C(c2nccs2)=N[C@H]1c1ccc(F)cc1Cl [Example 144] | < 100 | < 100 | – |
| CCOC(=O)C1=C2C[C@H](NS(C)(=O)=O)CN2C(c2nccs2)=N[C@H]1c1ccc(F)cc1 [Example 145] | 500 to 1000 | 500 to 1000 | – |
| CCOC(=O)C1=C2[C@@H](NS(C)(=O)=O)CCN2C(c2nccs2)=N[C@H]1c1ccc(F)cc1Br [Example 146] | 1000 to 5000 | 1000 to 5000 | – |
| CCOC(=O)C1=C2[C@H](NS(C)(=O)=O)CCN2C(c2nccs2)=N[C@H]1c1ccc(F)cc1Br [Example 147] | 1000 to 5000 | 1000 to 5000 | – |
| CCOC(=O)C1=C2C[C@H](NS(C)(=O)=O)CN2C(c2nccs2)=N[C@H]1c1ccc(F)c(F)c1 [Example 148] | 100 to 500 | 100 to 500 | – |
| COC(=O)C1=C2C[C@H](NS(C)(=O)=O)CN2C(c2nccs2)=N[C@H]1c1ccc(F)cc1Cl [Example 149] | < 100 | < 100 | – |
| CCOC(=O)C1=C2C[C@H](NS(C)(=O)=O)CN2C(c2nccs2)=N[C@H]1c1ccc(Cl)cc1F [Example 150] | 100 to 500 | 100 to 500 | – |
| CCOC(=O)C1=C2C[C@H](NS(C)(=O)=O)CN2C(c2nccs2)=N[C@H]1c1ccc(Cl)cc1Cl [Example 151] | < 100 | < 100 | – |
| CC(C)OC(=O)C1=C2C[C@H](NS(C)(=O)=O)CN2C(c2nccs2)=N[C@H]1c1ccc(F)cc1Cl [Example 152] | 100 to 500 | 100 to 500 | – |
| CCOC(=O)C1=C2C[C@H](NS(=O)(=O)C(F)(F)F)CN2C(c2nccs2)=N[C@H]1c1ccc(F)cc1Cl [Example 153] | < 100 | < 100 | – |
| CCOC(=O)C1=C2C[C@H](NS(C)(=O)=O)CN2C(c2nncs2)=N[C@H]1c1ccc(F)cc1Cl [Example 154] | 100 to 500 | 100 to 500 | – |

| SMILES | EC50 [1, 3] [nM] | EC50 [1, 4] [nM] | also measured |
| --- | --- | --- | --- |
| COC(=O)C1=C2C[C@H](NS(=O)(=O)C(F)(F)F)CN2C(c2nccs2)=N[C@H]1c1ccc(F)cc1Cl [Example 155] | < 100 | < 100 | – |
| COC(=O)C1=C2C[C@H](NS(=O)(=O)C3CC3)CN2C(c2nccs2)=N[C@H]1c1ccc(F)cc1Cl [Example 156] | < 100 | < 100 | – |
| CCOC(=O)C1=C2C[C@H](N(C)S(C)(=O)=O)CN2C(c2nccs2)=N[C@H]1c1ccc(F)cc1Cl [Example 157] | < 100 | < 100 | – |
| CCS(=O)(=O)N[C@H]1CC2=C(C(=O)OC)[C@H](c3ccc(F)cc3Cl)N=C(c3nccs3)N2C1 [Example 158] | < 100 | < 100 | – |
| COC(=O)C1=C2C[C@H](NS(N)(=O)=O)CN2C(c2nccs2)=N[C@H]1c1ccc(F)cc1Cl [Example 159] | < 100 | < 100 | – |
| CNS(=O)(=O)N[C@H]1CC2=C(C(=O)OC)[C@H](c3ccc(F)cc3Cl)N=C(c3nccs3)N2C1 [Example 160] | < 100 | < 100 | – |
| COC(=O)C1=C2C[C@H](NS(=O)(=O)CCO)CN2C(c2nccs2)=N[C@H]1c1ccc(F)cc1Cl [Example 161] | < 100 | < 100 | – |
| COC(=O)C1=C2C[C@H](NC(C)=O)CN2C(c2nccs2)=N[C@H]1c1ccc(F)cc1Cl [Example 162] | 100 to 500 | 100 to 500 | – |
| COC(=O)N[C@H]1CC2=C(C(=O)OC)[C@H](c3ccc(F)cc3Cl)N=C(c3nccs3)N2C1 [Example 163] | < 100 | < 100 | – |
| COC(=O)C1=C2C[C@H](NS(C)(=O)=O)CN2C(c2nccs2)=N[C@H]1c1ccc(F)c(Cl)c1 [Example 164] | 1000 to 5000 | 1000 to 5000 | – |
| COC(=O)C1=C2C[C@H](NS(C)(=O)=O)CN2C(c2nccs2)=N[C@H]1c1cccc(F)c1Cl [Example 165] | < 100 | < 100 | – |
| COC(=O)C1=C2C[C@H](NS(=O)(=O)CCN(C)C)CN2C(c2nccs2)=N[C@H]1c1ccc(F)cc1Cl [Example 166] | – | – | EC50 [2, 5]: < 100 nM; EC50 [2, 6]: < 100 nM |
| COC(=O)C1=C2C[C@H](NS(C)(=O)=O)CN2C(c2nccs2)=N[C@H]1c1ccc(F)c(F)c1F [Example 167] | – | – | EC50 [2, 5]: < 100 nM; EC50 [2, 6]: < 100 nM |
| COC(=O)C1=C2C[C@H](NS(C)(=O)=O)CN2C(c2nccs2)=N[C@@H]1c1ccc(F)c(F)c1F [Example 168] | – | – | EC50 [2, 5]: 100 to 500 nM; EC50 [2, 6]: 100 to 500 nM |
| COC(=O)C1=C2C[C@H](N(C)S(C)(=O)=O)CN2C(c2nccs2)=N[C@H]1c1ccc(F)cc1Cl [Example 169] | – | – | EC50 [2, 5]: < 100 nM; EC50 [2, 6]: < 100 nM |
| COC(=O)C1=C2C[C@H](NS(=O)(=O)C(C)(C)C)CN2C(c2nccs2)=N[C@H]1c1ccc(F)cc1Cl [Example 170] | – | – | EC50 [2, 5]: < 100 nM; EC50 [2, 6]: < 100 nM |
| COC(=O)C1=C2C[C@H](NS(=O)(=O)CCN)CN2C(c2nccs2)=N[C@H]1c1ccc(F)cc1Cl [Example 171] | – | – | EC50 [2, 5]: < 100 nM; EC50 [2, 6]: < 100 nM |
| COC(=O)CS(=O)(=O)N[C@H]1CC2=C(C(=O)OC)[C@H](c3ccc(F)cc3Cl)N=C(c3nccs3)N2C1 [Example 172] | – | – | EC50 [2, 5]: < 100 nM; EC50 [2, 6]: < 100 nM |
| COC(=O)C1=C2C[C@H](NC(=O)C3CC3)CN2C(c2nccs2)=N[C@H]1c1ccc(F)cc1Cl [Example 173] | – | – | EC50 [2, 5]: < 100 nM; EC50 [2, 6]: < 100 nM |
| CCOP(=O)(N[C@H]1CC2=C(C(=O)OC)[C@H](c3ccc(F)cc3Cl)N=C(c3nccs3)N2C1)OCC [Example 174] | – | – | EC50 ([2]; HepG2.2.15, read-out: BIOACTIVITY (inhibitory actions on HBV DNA, EC50)): 100 to 500 nM; EC50 ([2]; HepG2.2.15, read-out: Concentration for 50% inhibition of HBV (EC50)value): 100 to 500 nM |
